Where two headings read alike, the source gives them in different places.
What was measured:
PmSiaT = target: T1, PmSiaT (Proteus mirabilis, UniProt B4EZY7); test: Isothermal titration calorimetry, PmSiaT; format: binding
T1 construct: made in house
T1 sequence (B4EZY7 1-496): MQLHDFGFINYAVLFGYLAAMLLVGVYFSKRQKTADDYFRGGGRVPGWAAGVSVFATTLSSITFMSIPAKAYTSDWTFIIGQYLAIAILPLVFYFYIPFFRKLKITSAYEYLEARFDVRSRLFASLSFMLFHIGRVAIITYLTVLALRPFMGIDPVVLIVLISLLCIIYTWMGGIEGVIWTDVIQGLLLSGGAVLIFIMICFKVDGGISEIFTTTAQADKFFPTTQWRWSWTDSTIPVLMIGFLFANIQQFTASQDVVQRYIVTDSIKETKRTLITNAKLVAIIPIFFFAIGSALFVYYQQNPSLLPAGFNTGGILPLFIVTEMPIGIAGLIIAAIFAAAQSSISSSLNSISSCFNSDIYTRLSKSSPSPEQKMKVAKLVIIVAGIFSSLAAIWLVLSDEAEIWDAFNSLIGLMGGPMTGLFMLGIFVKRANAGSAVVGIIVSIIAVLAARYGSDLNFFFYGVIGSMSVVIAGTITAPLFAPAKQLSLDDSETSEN
Method: The binding thermodynamic analysis performed via isothermal titration calorimetry (ITC) provides insights into dissociation constants (Kd) and the binding driving forces of compounds 3a, 3e, and 3f with PmSiaT and SaSiaT.
Isothermal titration calorimetric experiments were performed on an ITC200 instrument (MicroCal, Northampton, USA) at 25 °C using standard instrument settings (reference power of 6 μcal s^–1, stirring speed of 750 rpm, feedback mode high, and filter period of 2 s). Protein solutions were dialyzed against ITC buffer (50 mM Tris–HCl, 150 mM NaCl, with 0.0174% (w/v) DDM, pH 8.0 at 5 °C) prior to the experiments, and all the samples were prepared using the dialysate buffer to minimize dilution effects. Protein concentrations were determined spectrophotometrically with the specific absorbance at 280 nm employing an extinction coefficient of 76,445 mol^–1 cm^–1 for PmSiaT and 75,750 M^–1 cm^–1 for SaSiaT. […] In a typical experiment, a 0.3–1.0 mM inhibitor solution was titrated to a solution containing 30–50 μM of PmSiaT or 13–20 μM of SaSiaT to ensure >90% saturation. Baseline correction, peak integration, and nonlinear regression analysis of experimental data were performed using the NITPIC (version 1.2.2.)[41] and SEDPHAT (version 12.1b)[42] software packages. The stoichiometry parameter was manually constrained to a value of 1. Experiments were performed in triplicate and the 68% confidence intervals from global fitting of three experiments were calculated as an estimate of the experimental error. All the titration curves can be found in Figures S10–S15.

[1] = Metabolic stability in human liver microsomes; format: in vitro ADME; settings: for microsomal CLint at 1 µM: human liver microsomes, read-out: intrinsic clearance Clint; for Metabolic stability in human microsomes, Exp. 1 / Metabolic stability in human microsomes, Exp. 2: intrinsic clearance, 1 µM compound
Method: The assay was run in a 96-deep well format and solutions were prepared containing microsomes in phosphate buffer. The microsomes employed were from humans, rats, and mice. The reaction was initiated by addition of NADPH after preincubation at 37 °C with test compounds. The reaction was stopped by the addition of acetonitrile (ACN) at six time points (0, 5, 10, 15, 25, and 45 min), the samples were centrifuged, and the supernatant was diluted to determine the loss of compound by LC–MS/MS. Two incubations per compound per species. For further details regarding working concentrations, volumes, and final concentrations at incubation, refer to the supplementary section (Table S6). […]
Metabolic Metabolic Metabolic stability in stability in stability in Plasma-protein human mouse rat In vitro plasma stability binding by RED
Assay/compo microsome microsome microsome (% compound remaining after (% unbound und s s s 23 h) compound, (µL/min/m (µL/min/m (µL/min/m average n=2) g protein) g protein) g protein)
Exp. Exp. Exp. Exp. Exp. Exp. Hum Mou Ra Do Mini Hum Mou Ra […]
Conc. of W orki ng Vol ume i n Fi nal conc. At sol uti on assay incubation
577 m g / m L520 µ L0. […]

Plasma stability, mouse = format: in vitro ADME; settings: 1 μM, 37 °C
Method: The reaction was started by the addition of the compound to blank plasma in LC vials after preincubation at 37 °C. The initial compound concentration was 1 μM. The reaction was stopped by the addition of ACN at seven time points (0, 0.5, 1, 2, 4, 6, and 23 h). Time point 0 h was about 15–20 s after spiking the plasma with the compound. The samples were centrifuged and the supernatant diluted and analyzed by LC–MS/MS to determine the % of compound remaining relative to the initial concentration of compound.

[2] = Plasma-protein binding by RED, range over three species; format: in vitro ADME; settings: pH 7.2, range over human, mouse, and rat, read-out: free fraction (plasma protein binding by RED)
Text: Next, we investigated the physiochemical and absorption, distribution, metabolism, and excretion (ADME) properties of compounds 3a, 3e, and 3f (Tables S5 and S6). […] The logD at pH 7.4 was below 0 for all three compounds (<−0.5 for compounds 3a and 3e). […] Overall, these features represent promising starting points for further development of this class of molecules.
The assay was run in a deep well plate containing RED inserts with semipermeable dialysis membranes. The reaction was started by adding the compounds to a blank plasma in a 5 μM concentration. Opposite to the blank plasma was a compartment containing isotonic sodium–phosphate buffer (pH 7.2) separated from the plasma by the membrane. The plate was equilibrated in a water bath at 37 °C for 4 h. Samples from both the plasma and the buffer side were matrix compensated before protein precipitation. The samples were centrifuged, and the supernatants were diluted and analyzed by LC–MS/MS to determine the % unbound compound. Two incubations per compound per species.

Row | Compound | PmSiaT -TΔS° (PmSiaT; ITC) [kcal/mol] | PmSiaT ΔG° (PmSiaT; ITC) [kcal/mol] | PmSiaT ΔH° (PmSiaT; ITC) [kcal/mol] | Kd (PmSiaT; PmSiaT Kd, ITC, 25 °C) [µM] | Kd (PmSiaT; PmSiaT Kd, ITC, Table S4) [µM] | microsomal CLint at 1 µM [1] [µL/min/mg] | Metabolic stability in human microsomes, Exp. 1 [1] [µL/min/mg protein] | Metabolic stability in human microsomes, Exp. 2 [1] [µL/min/mg protein] | In vitro plasma stability (% compound remaining after 23 h) (Plasma stability, mouse) [%] | fraction unbound at 4 h, 5 μM [2] | affinity increase of binding for PmSiaT (PmSiaT; compared to the natural substrate Neu5Ac) [fold] | Kd (PmSiaT) [µM]
1 | CC(=O)NC1C(OCc2cc(F)cc(F)c2)CC(O)(C(=O)O)OC1C(O)C(O)CO (centres unmarked) [Compound 3e] | -15.7 | -7.12 | 8.58 | 6.2 ± 2.8 | 6.07 | < 10 | < 10 | < 10 | 100 | 0.63 to 0.85 |  | 
2 | CC(=O)NC1C(OCc2ccccc2)CC(O)(C(=O)O)OC1C(O)C(O)CO (centres unmarked) [Compound 3a] | -13.9 | -6.91 | 7 | 9 ± 3.2 | 8.77 | < 10 | < 10 | < 10 | 100 | 0.63 to 0.85 |  | 
3 | CC(=O)NC1C(OCc2cc(Br)cc(Br)c2)CC(O)(C(=O)O)OC1C(O)C(O)CO (centres unmarked) [Compound 3f] | -17.8 | -8.96 | 8.87 | 0.27 ± 0.14 | 0.272 | < 10 | < 10 | < 10 | 100 | 0.21 to 0.27 | 180 | 
4 | CC(=O)N[C@H]1[C@H]([C@H](O)[C@H](O)CO)OC(O)(C(=O)O)C[C@@H]1O (some centres unmarked) [Neu5Ac, 5-N-acetyl neuraminic acid, reference compound] | -12.6 | -5.86 | 6.72 |  |  |  |  |  |  |  |  | 50 ± 9

Source: paper PMC9295122, “Sialic Acid Derivatives Inhibit SiaT Transporters and Delay Bacterial Growth” (ACS Chemical Biology, 2022)
